Assay results from patent US20140017330A1, “Activated Nucleoside Analog Conjugates and Methods of Use Thereof” (BOARD OF REGENTS OF THE UNIVERSITY OF NEBRASKA, priority 2011, published 2014).

Assays:
[1] = test system: cytarabine-resistant human leukemic lymphoblast CEM/araC/8 cells; test: MTT cytotoxicity assay, CEM/araC/8; format: cell-based; details: 72-hour treatment
Method: (§1) Human breast carcinoma MCF-7, human hepatocellular carcinoma HepG2, and human prostate adenocarcinoma PC-3 cells were obtained from ATCC (Rockville, Md.). These cells were maintained in Dulbecco's Modified Eagle Medium (DMEM) supplemented with 10% fetal bovine serum (FBS), 1% L-glutamine, and 2% penicillin-streptomycin at 37° C. in a humidified atmosphere containing 5% CO2. […] These cells were maintained in DMEM/Nutrient mixture F-12 (DMEM/F12) with similar supplements and serum as above. […] They were grown in the presence of 2 μM gemcitabine. […] Galmarini (UFR Lyon-Sud, Oullins, France). The cells were grown in the presence of 0.5 μM cytarabine (araC). […]
(§2) Cytotoxicity of the polymeric conjugates was analyzed in different cancer cell lines by a standard MTT assay. […] Samples were incubated in full medium for 72 hours at 37° C., and the metabolic activity of each sample was determined by adding 20 μL of a 5 mg/mL of MTT stock solution in sterile PBS buffer to each well. […] Optical absorbance was measured at 560 nm using a model 680 microplate reader (BioRad, Hercules, Calif.) and cytotoxicity was expressed as a percentage of survived cells relative to nontreated control cells. All samples were analyzed by an average of eight measurements (means±SEM).

[2] = test system: human hepatocellular carcinoma HepG2 cells; test: MTT cytotoxicity assay, HepG2; format: cell-based; details: 72-hour treatment, read-out: IC50 values, Hep G2
Method: as §1, §2

[3] = test system: human breast carcinoma MCF-7 cells; test: MTT cytotoxicity assay, MCF-7; format: cell-based; details: MCF7, 72-hour treatment
Method: as §1, §2

[4] = test system: human prostate adenocarcinoma PC-3 cells; test: MTT cytotoxicity assay, PC-3; format: cell-based; details: 72-hour treatment
Method: as §1, §2

[5] = test system: human breast carcinoma MDA-MB-231 cells; test: MTT cytotoxicity assay, MDA-MB-231; format: cell-based; details: 72-hour treatment
Method: as §1, §2

[6] = test system: gemcitabine-resistant human follicular lymphoma RL7/G cells; test: MTT cytotoxicity assay, RL7/G; format: cell-based; details: 72-hour treatment
Method: as §1, §2

[7] = comparator from the literature (Mikkola 2004); cited from earlier work

## Nc1ccn([C@@H]2O[C@H](CO)[C@@H](O)[C@@H]2O)c(=O)n1 [Cytarabine (araC), arabinosylcytosine]
[1]
  IC50: 1230 µM

## O=c1[nH]c(=O)n([C@H]2C[C@H](O)[C@@H](CO)O2)cc1F [Floxuridine (FdU), 5-fluoro-2′-deoxyuridine]
[2]
  IC50: 2200 µM
[3]
  IC50: 12200 µM
[4]
  IC50: 6.5 µM
[5]
  IC50: 14.2 µM

## Nc1ccn([C@@H]2O[C@H](CO)[C@@H](O)C2(F)F)c(=O)n1 [Gemcitabine (G), 2,2′-difluorocytidine]
[6]
  IC50: 19000 µM

## Nc1ncnc2c1ncn2[C@@H]1O[C@H](COP(=O)(O)OP(=O)(O)OP(=O)(O)OP(=O)(O)OC[C@H]2O[C@@H](n3cnc4c(N)ncnc43)[C@H](O)[C@@H]2O)[C@@H](O)[C@H]1O [diadenosine-P1,P4-tetraphosphate]
[7]
  drug release time: 3 days
